Paper PMC8881610 (Nature Communications, 2022)
Numbering of substitutions follows the chain as printed.

How the values were obtained:
GIPR [1] = molecular target: T1, GIPR (Homo sapiens, UniProt P48546); test: β-arrestin 2 recruitment (BRET); assay type: cell-based; set-up: expressed in transfected cells; host or cells: HEK293T; details: GIPR WT, HEK293T; for EC50: read-out: β-arrestin 2 recruitment pEC50 (converted); for Emax: HEK-293T
T1 sequence (P48546 22-466): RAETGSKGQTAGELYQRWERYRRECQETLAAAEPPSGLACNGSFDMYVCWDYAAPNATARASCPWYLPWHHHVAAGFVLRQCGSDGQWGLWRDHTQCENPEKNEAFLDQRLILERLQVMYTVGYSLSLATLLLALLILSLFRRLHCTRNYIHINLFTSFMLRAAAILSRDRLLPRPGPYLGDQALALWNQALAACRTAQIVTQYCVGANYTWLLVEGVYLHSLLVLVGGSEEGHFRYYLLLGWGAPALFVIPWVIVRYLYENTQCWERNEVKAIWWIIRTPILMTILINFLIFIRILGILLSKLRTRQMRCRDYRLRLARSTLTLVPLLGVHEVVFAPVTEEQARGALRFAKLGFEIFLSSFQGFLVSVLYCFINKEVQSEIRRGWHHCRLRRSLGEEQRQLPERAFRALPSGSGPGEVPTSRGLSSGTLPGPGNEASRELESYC
Method: After cells were grown for 24 h, transiently transfected cells were then seeded onto poly-D-lysine coated 96-well culture plates (50,000 cells/well) in DMEM with 10% FBS. Cells were grown for 20 h before incubation in assay buffer (HBSS supplemented with 10 mM HEPES, 0.1% BSA or 0.1% casein, pH 7.4) for 30 min at 37 °C. Coelentrazine-h (Yeasen Biotech) was added to a final concentration of 5 μM for 5 min before bioluminescence resonance energy transfer (BRET) readings were made using an EnVision plate reader (PerkinElmer). BRET baseline measurements were collected for 15 cycles prior to ligand addition. After which, BRET was measured for 55 cycles.

GIPR [2] = molecular target: T2, GIPR (Homo sapiens, UniProt P48546, T345F); test: cAMP accumulation assay (LANCE Ultra cAMP kit), GIPR WT, mutant or modified constructs; assay type: cell-based; set-up: acylated tirzepatide to the full-length or modified; Flag; expressed in transfected cells; host or cells: HEK293T; details: GIPR T345F, HEK293T; for EC50: read-out: cAMP pEC50 (converted)
T2 sequence (P48546 22-466 T345F): T1 sequence (P48546 22-466) with T324F
Method in brief: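 HEK293T cells transiently transfected with human GIPR WT or mutant constructs (pcDNA3.1), used after 24 h. The cells were stimulated with peptide agonists for 40 min at RT in HBSS with 5 mM HEPES, 0.1% BSA or casein, and 0.5 mM IBMX. cAMP was read by LANCE Ultra TR-FRET (Eu-cAMP tracer/ULight anti-cAMP, 1 h RT, 620/650 nm).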

SMILES	EC50 (GIPR [1]; 0.1% casein) [nM]	Emax (GIPR [1]; 0.1% BSA) [%]	Emax (GIPR [1]; 0.1% casein) [%]	EC50 (GIPR [2]) [nM]	Emax (GIPR [2]; HEK-293T) [%]
CC[C@H](C)[C@H](NC(=O)[C@H](CC(C)C)NC(=O)[C@H](Cc1c[nH]c2ccccc12)NC(=O)[C@H](CCC(N)=O)NC(=O)[C@@H](NC(=O)[C@H](Cc1ccccc1)NC(=O)[C@H](C)NC(=O)[C@H](CCCCN)NC(=O)[C@H](CCC(N)=O)NC(=O)[C@H](C)NC(=O)[C@@H](NC(=O)[C@H](CCCCN)NC(=O)[C@H](CC(=O)O)NC(=O)[C@H](CC(C)C)NC(=O)C(C)(C)NC(=O)[C@@H](NC(=O)[C@H](CO)NC(=O)[C@H](Cc1ccc(O)cc1)NC(=O)[C@H](CC(=O)O)NC(=O)[C@H](CO)NC(=O)[C@@H](NC(=O)[C@H](Cc1ccccc1)NC(=O)[C@@H](NC(=O)CNC(=O)[C@H](CCC(=O)O)NC(=O)C(C)(C)NC(=O)[C@@H](N)Cc1ccc(O)cc1)[C@@H](C)O)[C@@H](C)O)[C@@H](C)CC)[C@@H](C)CC)C(C)C)C(=O)N[C@@H](C)C(=O)NCC(=O)NCC(=O)N1CCC[C@H]1C(=O)N[C@@H](CO)C(=O)N[C@@H](CO)C(=O)NCC(=O)N[C@@H](C)C(=O)N1CCC[C@H]1C(=O)N1CCC[C@H]1C(=O)N1CCC[C@H]1C(=O)N[C@@H](CO)C(N)=O [Non-acylated tirzepatide]	14.8	57.1 ± 1.97	59.8 ± 1.01		
CCCCCCCCCCCCCCCC(=O)N[C@@H](CCC(=O)NCCCC[C@H](NC(=O)[C@H](CC(=O)O)NC(=O)[C@H](CO)NC(=O)[C@@H](NC(=O)[C@H](Cc1ccccc1)NC(=O)[C@@H](NC(=O)CNC(=O)[C@H](CCC(N)=O)NC(=O)C(C)(C)NC(=O)[C@@H](N)Cc1c[nH]cn1)[C@@H](C)O)[C@@H](C)O)C(=O)N[C@@H](CO)C(=O)N[C@@H](CCCCN)C(=O)N[C@@H](Cc1ccc(O)cc1)C(=O)N[C@@H](CC(C)C)C(=O)N[C@@H](CC(=O)O)C(=O)N[C@@H](CCC(=O)O)C(=O)N[C@@H](CCCNC(=N)N)C(=O)N[C@@H](C)C(=O)N[C@@H](C)C(=O)N[C@@H](CCC(N)=O)C(=O)N[C@@H](CC(=O)O)C(=O)N[C@@H](Cc1ccccc1)C(=O)N[C@H](C(=O)N[C@@H](CCC(N)=O)C(=O)N[C@@H](Cc1c[nH]c2ccccc12)C(=O)N[C@@H](CC(C)C)C(=O)N[C@@H](CC(C)C)C(=O)N[C@@H](CC(=O)O)C(=O)NCC(=O)NCC(=O)N1CCC[C@H]1C(=O)N[C@@H](CO)C(=O)N[C@@H](CO)C(=O)NCC(=O)N[C@@H](C)C(=O)N1CCC[C@H]1C(=O)N1CCC[C@H]1C(=O)N1CCC[C@H]1C(=O)N[C@@H](CO)C(N)=O)C(C)C)C(=O)O [Peptide 20]				0.00794	99.6 ± 2.09
CC[C@H](C)[C@H](NC(=O)[C@H](CC(C)C)NC(=O)[C@H](Cc1c[nH]c2ccccc12)NC(=O)[C@H](CCC(N)=O)NC(=O)[C@@H](NC(=O)[C@H](Cc1ccccc1)NC(=O)[C@H](C)NC(=O)[C@H](CCCCNC(=O)COCCOCCNC(=O)COCCOCCNC(=O)CC[C@H](NC(=O)CCCCCCCCCCCCCCCCCCC(=O)O)C(=O)O)NC(=O)[C@H](CCC(N)=O)NC(=O)[C@H](C)NC(=O)[C@@H](NC(=O)[C@H](CCCCN)NC(=O)[C@H](CC(=O)O)NC(=O)[C@H](CC(C)C)NC(=O)C(C)(C)NC(=O)[C@@H](NC(=O)[C@H](CO)NC(=O)[C@H](Cc1ccc(O)cc1)NC(=O)[C@H](CC(=O)O)NC(=O)[C@H](CO)NC(=O)[C@@H](NC(=O)[C@H](Cc1ccccc1)NC(=O)[C@@H](NC(=O)CNC(=O)[C@H](CCC(=O)O)NC(=O)C(C)(C)NC(=O)[C@@H](N)Cc1ccc(O)cc1)[C@@H](C)O)[C@@H](C)O)[C@@H](C)CC)[C@@H](C)CC)C(C)C)C(=O)N[C@@H](C)C(=O)NCC(=O)NCC(=O)N1CCC[C@H]1C(=O)N[C@@H](CO)C(=O)N[C@@H](CO)C(=O)NCC(=O)N[C@@H](C)C(=O)N1CCC[C@H]1C(=O)N1CCC[C@H]1C(=O)N1CCC[C@H]1C(=O)N[C@@H](CO)C(N)=O [Tirzepatide]	18.6	53.4 ± 2.32	53.4 ± 1.93	0.0141	
